# According to US20240261417A1, “SOS1 DEGRADING AGENT AND PREPARATION METHOD THEREFOR AND APPLICATION THEREOF” (SHANGHAI LEADINGTAC PHARMACEUTICAL CO. LTD., priority 2021, published 2024):
# Experiments:
# [1] = target: T1, SOS1 protein (Homo sapiens, UniProt Q07889); test: SOS1 degradation assay (Western blot), NCI-H358 cells; format: cell-based; design: The degradation of SOS1 by the compounds was investigated on KRAS G12C mutant human non-small cell lung cancer cells NCI-H358; host or cells: NCI-H358 (human cancer cell lines); conditions: SOS1 degradation, NCI-H358 cells, 24 h, Western blot; for DC50: read-out: NCI-H358 (G12C) DC50; for Dmax: read-out: NCI-H358 (G12C) Dmax
# T1 sequence (Q07889 1-1333): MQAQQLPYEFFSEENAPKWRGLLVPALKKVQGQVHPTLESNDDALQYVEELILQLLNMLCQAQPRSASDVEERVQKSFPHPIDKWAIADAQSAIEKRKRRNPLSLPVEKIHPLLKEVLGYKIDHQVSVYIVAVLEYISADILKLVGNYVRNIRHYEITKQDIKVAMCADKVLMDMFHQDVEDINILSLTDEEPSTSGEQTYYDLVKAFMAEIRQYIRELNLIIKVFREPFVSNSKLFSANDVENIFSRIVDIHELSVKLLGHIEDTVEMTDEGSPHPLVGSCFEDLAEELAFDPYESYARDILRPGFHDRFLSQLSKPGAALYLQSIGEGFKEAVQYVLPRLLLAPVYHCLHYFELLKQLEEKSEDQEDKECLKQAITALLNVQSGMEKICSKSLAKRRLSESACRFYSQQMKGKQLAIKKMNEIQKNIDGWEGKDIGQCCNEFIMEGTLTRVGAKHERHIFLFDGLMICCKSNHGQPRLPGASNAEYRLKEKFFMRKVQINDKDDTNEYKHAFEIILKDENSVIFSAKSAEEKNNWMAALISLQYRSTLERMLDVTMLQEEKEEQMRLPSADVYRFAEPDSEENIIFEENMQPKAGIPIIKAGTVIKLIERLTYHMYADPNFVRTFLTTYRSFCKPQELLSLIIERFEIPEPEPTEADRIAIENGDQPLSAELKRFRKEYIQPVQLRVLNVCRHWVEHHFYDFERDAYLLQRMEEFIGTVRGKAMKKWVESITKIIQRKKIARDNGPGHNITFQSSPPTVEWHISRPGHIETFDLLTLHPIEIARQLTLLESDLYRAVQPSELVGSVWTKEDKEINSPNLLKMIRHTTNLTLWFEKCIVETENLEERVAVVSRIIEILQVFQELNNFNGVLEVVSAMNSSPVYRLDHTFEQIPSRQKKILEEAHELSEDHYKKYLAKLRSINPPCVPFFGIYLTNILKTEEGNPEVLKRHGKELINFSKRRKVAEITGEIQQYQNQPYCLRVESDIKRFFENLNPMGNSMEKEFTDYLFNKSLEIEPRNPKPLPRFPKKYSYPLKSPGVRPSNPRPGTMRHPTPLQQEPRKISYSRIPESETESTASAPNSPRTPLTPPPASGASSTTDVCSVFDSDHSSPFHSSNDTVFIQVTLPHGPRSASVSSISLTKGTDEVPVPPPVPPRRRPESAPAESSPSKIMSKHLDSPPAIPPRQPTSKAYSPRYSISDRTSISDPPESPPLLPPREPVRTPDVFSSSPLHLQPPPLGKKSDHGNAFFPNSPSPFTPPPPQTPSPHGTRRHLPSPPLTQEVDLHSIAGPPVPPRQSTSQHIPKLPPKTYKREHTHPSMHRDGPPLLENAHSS
# Outline: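 Cells at 5×10^5 per well were treated for 24 h at 37 °C with compound at 0.03–3000 nM final. SOS1 in lysates was measured by Western blot with chemiluminescent densitometry and normalised to the control group. DC50 and Dmax came from nonlinear fits against log concentration.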
# [2] = target: T2, KRAS-G12C/SOS1 (Homo sapiens, UniProt Q07889); test: KRAS-G12C/SOS1 binding assay (HTRF); conditions: inhibition of KRAS-G12C/SOS1 binding
# T2 construct: purchased Cisbio 63ADKOOOCB16PEG
# T2 sequence (Q07889 1-1333): T1 sequence (Q07889 1-1333)
# Procedure: The following method was used to determine the extent of inhibition of KRAS-G12C/SOS1 binding by the preferred compounds of the present invention under in vitro conditions. In this method, the competitive inhibition of KRAS-G12C/SOS1 binding by the preferred compounds was assayed by the homogeneous time-resolved fluorescence (HTRF) technology using the KRAS-G12C/SOS1 binding assay kit (Cisbio, 63ADKOOOCB16PEG).
# The experimental procedures were as follows (refer to the kit instructions for details): the compounds of the present invention were each firstly dissolved in DMSO at a concentration of 20 mM, and then diluted in an equal gradient with a buffer in the kit, so that the final concentrations of the test compounds in the reaction system were in a range of 10000 nM-0.04 nM, and the final concentration of DMSO was 0.5%. 2 μL of the compounds were each incubated with 4 μL of 1×Tag1-SOS1, 4 μL of 1×Tag2-KRAS-G12C (containing 10 μM guanosine triphosphate, GTP) at 25° C. for 15 min. Then 5 μL of 1× Anti-Tag1-Tb3+ and 5 μL of 1× Anti-Tag2-XL665 were added to the reaction system, and the mixture was incubated on ice for 3 h. After the incubation, the fluorescence intensity of each well was measured at the excitation wavelength of 337 nm, the fluorescence intensity of each well was read at the emission wavelengths of 620 nm and 665 nm on a microplate reader EnVision (PerkinElmer, 2105) in an HTRF mode, and the Ratio value was calculated by the formula Ratio=(665 nm/620 nm)×[…]. The inhibition rates of the compounds at each concentration were calculated by comparing the fluorescence intensity ratio with that of the control group, and then nonlinear curve fitting was performed by GraphPad Prism 8 in the logarithmic concentration-inhibition rate to obtain the IC50 values of the compounds, as shown in Table 1.
SMILES,DC50 [1] [nM],Dmax [1] [%],IC50 [2] [nM]
"COc1cc2nc(C)nc(N[C@H](C)c3cc(-c4c(Cl)cccc4CN(C)C)cs3)c2cc1[C@H]1CC[C@H](C(=O)N2CCN(CCOCC3CCN(C(=O)c4ccc(Cl)c(N5CCC(=O)NC5=O)c4)CC3)CC2)CC1 [Example 67, 1-(2-chloro-5-(4-((2-(4-((1R,4R)-4-(4-(((R)-1-(4-(2-chloro-6-((dimethylamino)methyl)phenyl)thien-2-yl)ethyl)amino)-7-methoxy-2-methylquinazolin-6-yl)cyclohexane-1-carbonyl)piperazin-1-yl)ethoxy)methyl)piperidine-1-carbonyl)phenyl)dihydropyrimidine-2,4(1H,3H)-dione]",< 50,80 to 100,≤ 15
"[2H]C([2H])(OCC1CCN(C(=O)[C@H]2CC[C@H](c3cc4c(N[C@H](C)c5cc(N)cc(C(F)(F)F)c5)nc(C)nc4cc3OC)CC2)CC1)C1CCN(C(=O)c2ccc(Cl)c(N3CCC(=O)NC3=O)c2)CC1 [Example 75, 1-(5-(4-(((1-((1R,4R)-4-(4-(((R)-1-(3-amino-5-(trifluoromethyl)phenyl)ethyl)amino)-7-methoxy-2-methylquinazolin-6-yl)cyclohexane-1-carbonyl)piperidin-4-yl)methoxy)methyl-d2)piperidine-1-carbonyl)-2-chlorophenyl)dihydropyrimidine-2,4(1H,3H)-dione]",< 50,50 to 80,≤ 15
"COc1cc2nc(C)nc(N[C@H](C)c3cc(N)cc(C(F)(F)F)c3)c2cc1C1=CCC(C(=O)N2CCN(CCOCC3CCN(C(=O)c4ccc(Cl)c(N5CCC(=O)NC5=O)c4)CC3)CC2)CC1 (stereo partly drawn) [Example 53, 1-(5-(4-((2-(4-(4-(4-(((R)-1-(3-amino-5-(trifluoromethyl)phenyl)ethyl)amino)-7-methoxy-2-methylquinazolin-6-yl)cyclohex-3-ene-1-carbonyl)piperazin-1-yl)ethoxy)methyl)piperidine-1-carbonyl)-2-chlorophenyl)dihydropyrimidine-2,4(1H,3H)-dione]",< 50,50 to 80,≤ 15
"COc1cc2nc(C)nc(N[C@H](C)c3cc(-c4c(Cl)cccc4CN(C)C)cs3)c2cc1[C@H]1CC[C@H](C(=O)N2CCC(COCCC3CCN(C(=O)c4ccc(Cl)c(N5CCC(=O)NC5=O)c4)CC3)CC2)CC1 [Example 70, 1-(2-chloro-5-(4-(2-((1-((1R,4R)-4-(4-(((R)-1-(4-(2-chloro-6-((dimethylamino)methyl)phenyl)thien-2-yl)ethyl)amino)-7-methoxy-2-methylquinazolin-6-yl)cyclohexane-1-carbonyl)piperidin-4-yl)methoxy)ethyl)piperidine-1-carbonyl)phenyl)dihydropyrimidine-2,4(1H,3H)-dione]",< 50,80 to 100,≤ 15
"COc1cc2nc(C)nc(N[C@H](C)c3cc(-c4c(Cl)cccc4CN(C)C)cs3)c2cc1[C@H]1CC[C@H](C(=O)N2CCC(OCCCC3CCN(C(=O)c4ccc(Cl)c(N5CCC(=O)NC5=O)c4)CC3)CC2)CC1 [Example 61, 1-(2-chloro-5-(4-(3-((1-((1R,4R)-4-(4-(((R)-1-(4-(2-chloro-6-((dimethylamino)methyl)phenyl)thien-2-yl)ethyl)amino)-7-methoxy-2-methylquinazolin-6-yl)cyclohexane-1-carbonyl)piperidin-4-yl)oxy)propyl)piperidine-1-carbonyl)phenyl)dihydropyrimidine-2,4(1H,3H)-dione]",100 to 500,50 to 80,≤ 15
"[2H]C1([2H])CC(OCC2CCN(C(=O)[C@H]3CC[C@H](c4cc5c(N[C@H](C)c6cc(N)cc(C(F)(F)F)c6)nc(C)nc5cc4OC)CC3)CC2)CC([2H])([2H])N1C(=O)c1ccc(Cl)c(N2CCC(=O)NC2=O)c1 [Example 45, 1-(5-(4-((1-((1R,4R)-4-(4-(((R)-1-(3-amino-5-(trifluoromethyl)phenyl)ethyl)amino)-7-methoxy-2-methylquinazolin-6-yl)cyclohexane-1-carbonyl)piperidin-4-yl)methoxy)piperidine-1-carbonyl-2,2,6,6-d4)-2-chlorophenyl)dihydropyrimidine-2,4(1H,3H)-dione]",100 to 500,50 to 80,≤ 15
"CNCc1cccc(Cl)c1-c1csc([C@@H](C)Nc2nc(C)nc3cc(OC)c([C@H]4CC[C@H](C(=O)N5CCC(CCOCC6CCN(C(=O)c7ccc(Cl)c(N8CCC(=O)NC8=O)c7)CC6)CC5)CC4)cc23)c1 [Example 69, 1-(2-chloro-5-(4-((2-(1-((1R,4R)-4-(4-(((R)-1-(4-(2-chloro-6-((methylamino)methyl)phenyl)thien-2-yl)ethyl)amino)-7-methoxy-2-methylquinazolin-6-yl)cyclohexane-1-carbonyl)piperidin-4-yl)ethoxy)methyl)piperidine-1-carbonyl)phenyl)dihydropyrimidine-2,4(1H,3H)-dione]",< 50,50 to 80,≤ 15
"COc1cc2nc(C)nc(N[C@H](C)c3cc(-c4c(Cl)cccc4CN(C)C)cs3)c2cc1[C@H]1CC[C@H](C(=O)N2CCC(CCCCN3CCN(C(=O)c4ccc(Cl)c(N5CCC(=O)NC5=O)c4)CC3)CC2)CC1 [Example 56, 1-(2-chloro-5-(4-(4-(1-((1R,4R)-4-(4-(((R)-1-(4-(2-chloro-6-((dimethylamino)methyl)phenyl)thien-2-yl)ethyl)amino)-7-methoxy-2-methylquinazolin-6-yl)cyclohexane-1-carbonyl)piperidin-4-yl)butyl)piperazine-1-carbonyl)phenyl)dihydropyrimidine-2,4(1H,3H)-dione]",< 50,80 to 100,≤ 15
"COc1cc2nc(C)nc(N[C@H](C)c3cc(N)cc(C(F)(F)F)c3)c2cc1C1=CCC(C(=O)N2CCC(CCOCC3CCN(C(=O)c4ccc(Cl)c(N5CCC(=O)NC5=O)c4)CC3)CC2)CC1 (stereo partly drawn) [Example 64, 1-(5-(4-((2-(1-(4-(4-(((R)-1-(3-amino-5-(trifluoromethyl)phenyl)ethyl)amino)-7-methoxy-2-methylquinazolin-6-yl)cyclohex-3-ene-1-carbonyl)piperidin-4-yl)ethoxy)methyl)piperidine-1-carbonyl)-2-chlorophenyl)dihydropyrimidine-2,4(1H,3H)-dione]",< 50,50 to 80,≤ 15
